One test has as its target T1, MDM2 (Homo sapiens, UniProt Q00987).
T1 construct: made in house
The test is described as follows: Inhibition test of MDM2-P53 (GST-MDM2, Biotin-P53, Anti-GST-Tb, SA-XL665). It is filed as binding. Summed up:
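Compounds, serially diluted 5-fold (twelve concentrations), were shaken for 90 min at 25° C with a mix of GST-MDM2 (4 nM final), Biotin-P53, anti-GST-Tb and SA-XL665. Buffer: 1×PBS, 0.1% BSA, 5 mM DTT, 1 mM AEBSF; signal read on a microplate reader.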

The test system of test [1] is human osteosarcoma cell line SJSA-1. The test is described as follows: Inhibition of proliferation of human osteosarcoma cell line SJSA-1 (DAPI staining, In Cell Analyzer). The conditions noted are these: Homo sapiens, SJSA-1, 72 h, read-out: IC50 (nM), inhibitory activity on proliferation of human osteosarcoma cell line SJSA-1, SJSA-1, incubated 72 h.

T1 sequence (Q00987 whole entry): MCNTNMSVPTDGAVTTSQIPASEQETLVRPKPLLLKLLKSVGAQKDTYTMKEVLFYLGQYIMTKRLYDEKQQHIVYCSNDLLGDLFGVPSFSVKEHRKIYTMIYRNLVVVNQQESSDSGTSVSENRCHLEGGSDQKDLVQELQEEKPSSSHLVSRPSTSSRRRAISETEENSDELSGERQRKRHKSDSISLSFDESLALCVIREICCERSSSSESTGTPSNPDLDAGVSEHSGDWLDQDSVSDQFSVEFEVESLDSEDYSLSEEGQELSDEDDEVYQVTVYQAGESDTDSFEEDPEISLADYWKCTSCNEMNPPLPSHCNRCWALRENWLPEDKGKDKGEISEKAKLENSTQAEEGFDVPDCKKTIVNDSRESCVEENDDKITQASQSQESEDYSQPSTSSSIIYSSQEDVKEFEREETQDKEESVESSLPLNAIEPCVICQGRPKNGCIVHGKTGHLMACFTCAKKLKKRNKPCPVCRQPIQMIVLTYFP

`COc1nc(C)ncc1-c1nc2c(n1C(C)C)[C@@]1(C(=O)Nc3cc(Cl)ccc31)N(c1cc(Cl)ccc1C)C2=O` [Example S-118, (S)-6-chloro-5′-(5-chloro-2-methylphenyl)-3′-isopropyl-2′-(4-methoxy-2-methylpyrimidin-5-yl)-3′H-spiro[dihydroindole-3,4′-pyrrolo[3,4-d]imidazole]-2,6′(5′H)-dione]: the figures for the IC50 (at MDM2; in test [1]) were 3.51 nM and 107 nM, respectively.
The corresponding values for `CCN(C)c1ncc(-c2nc3c(n2C(C)C)[C@@]2(C(=O)Nc4cc(Cl)ccc42)N(c2cc(Cl)ccc2C)C3=O)c(OC)n1` [Example S-119, (S)-6-chloro-5′-(5-chloro-2-methylphenyl)-2′-(2-(ethyl(methyl)amino)-4-methoxypyrimidin-5-yl)-3′-isopropyl-3′H-spiro[dihydroindole-3,4′-pyrrolo[3,4-d]imidazole]-2,6′(5′H)-dione] are 2.39 nM and 20 nM.
The corresponding values for `COc1cc(OC(F)(F)F)ccc1-c1nc2c(n1C(C)C)[C@@]1(C(=O)Nc3cc(Cl)ccc31)N(c1cccc(Cl)c1)C2=O` [Example S-120, (S)-6-chloro-5′-(3-chlorophenyl)-3′-isopropyl-2′-(2-methoxy-4-(trifluoromethoxy)phenyl)-3′H-spiro[dihydroindole-3,4′-pyrrolo[3,4-d]imidazole]-2,6′(5′H)-dione] are 9.01 nM and 364 nM.
For `COc1nc(C2CC2)ncc1-c1nc2c(n1C(C)C)[C@@]1(C(=O)Nc3cc(Cl)ccc31)N(c1cccc(Cl)c1)C2=O` [Example S-122, (S)-6-chloro-5′-(3-chlorophenyl)-2′-(2-cyclopropyl-4-methoxypyrimidin-5-yl)-3′-isopropyl-3′H-spiro[dihydroindole-3,4′-pyrrolo[3,4-d]imidazole]-2,6′(5′H)-dione], the figures for the IC50 (on MDM2; in test [1]) were 2.76 nM and 117 nM, respectively.
The corresponding values for `CCOc1ncc(-c2nc3c(n2C(C)C)[C@@]2(C(=O)Nc4cc(Cl)ccc42)N(c2cccc(Cl)c2)C3=O)c(OC)n1` [Example S-123, (S)-6-chloro-5′-(3-chlorophenyl)-2′-(2-ethoxy-4-methoxypyrimidin-5-yl)-3′-isopropyl-3′H-spiro[dihydroindole-3,4′-pyrrolo[3,4-d]imidazole]-2,6′(5′H)-dione] are 2.11 nM and 321 nM.
The corresponding values for `COc1nc(OC(C)C)ncc1-c1nc2c(n1C(C)C)[C@@]1(C(=O)Nc3cc(Cl)ccc31)N(c1cccc(Cl)c1)C2=O` [Example S-124, (S)-6-chloro-5′-(3-chlorophenyl)-2′-(2-isopropoxy-4-methoxypyrimidin-5-yl)-3′-isopropyl-3′H-spiro[dihydroindole-3,4′-pyrrolo[3,4-d]imidazole]-2,6′(5′H)-dione] are 2.91 nM and 129 nM.
In the case of `COc1nc(OC(C)C)ncc1-c1nc2c(n1C(C)C)[C@@]1(C(=O)Nc3cc(Cl)ccc31)N(c1cc(Cl)ccc1C)C2=O` [Example S-126, (S)-6-chloro-5′-(5-chloro-2-methylphenyl)-2′-(2-isopropoxy-4-methoxypyrimidin-5-yl)-3′-isopropyl-3′H-spiro[dihydroindole-3,4′-pyrrolo[3,4-d]imidazole]-2,6′(5′H)-dione], the IC50 at MDM2 was found to be 1.52 nM; in test [1], 79.6 nM.
The corresponding values for `CCOc1ncc(-c2nc3c(n2C(C)C)[C@@]2(C(=O)Nc4cc(Cl)ccc42)N(c2cc(Cl)ccc2C)C3=O)c(OC)n1` [Example S-127, (S)-6-chloro-5′-(5-chloro-2-methylphenyl)-2′-(2-ethoxy-4-methoxypyrimidin-5-yl)-3′-isopropyl-3′H-spiro[dihydroindole-3,4′-pyrrolo[3,4-d]imidazole]-2,6′(5′H)-dione] are 2.76 nM and 83.2 nM.
`COc1cc(C#N)ccc1-c1nc2c(n1C(C)C)[C@@]1(C(=O)Nc3cc(Cl)ccc31)N(c1cccc(Cl)c1)C2=O` [Example S-128, (S)-4-(6-chloro-5′-(3-chlorophenyl)-3′-isopropyl-2,6′-dioxo-5′,6′-dihydro-3′H-spiro[dihydroindole-3,4′-pyrrolo[3,4-d]imidazole]-2′-yl)-3-methoxybenzonitrile]: the IC50 on MDM2 amounted to 1.09 nM; in test [1] it was 145 nM.
Regarding `COc1cc(C(F)(F)F)ccc1-c1nc2c(n1C(C)C)[C@@]1(C(=O)Nc3cc(Cl)ccc31)N(c1cccc(Cl)c1)C2=O` [Example S-129, (S)-6-chloro-5′-(3-chlorophenyl)-3′-isopropyl-2′-(2-methoxy-4-(trifluoromethyl)phenyl)-3′H-spiro[dihydroindole-3,4′-pyrrolo[3,4-d]imidazole]-2,6′(5′H)-dione], the IC50 against MDM2 was found to be 3.84 nM; in test [1], 146 nM.
For `COc1nc(OC(C)C)ncc1-c1nc2c(n1C(C)C)[C@@]1(C(=O)Nc3cc(Cl)ccc31)N(c1cc(Cl)cnc1C)C2=O` [Example S-136, (S)-6-chloro-5′-(5-chloro-2-methylpyridin-3-yl)-2′-(2-isopropoxy-4-methoxypyrimidin-5-yl)-3′-isopropyl-3′H-spiro[dihydroindole-3,4′-pyrrolo[3,4-d]imidazole]-2,6′(5′H)-dione], in that order: 2.35 nM and 108 nM.
The corresponding values for `CCOc1cc(OC)c(-c2nc3c(n2C(C)C)[C@@]2(C(=O)Nc4cc(Cl)ccc42)N(c2cc(F)cc(Cl)c2)C3=O)cn1` [Example S-139, (S)-6-chloro-5′-(3-chloro-5-fluorophenyl)-2′-(6-ethoxy-4-methoxypyridin-3-yl)-3′-isopropyl-3′H-spiro[dihydroindole-3,4′-pyrrolo[3,4-d]imidazole]-2,6′(5′H)-dione] are 1.36 nM and 50.7 nM.
The corresponding values for `COc1nc(OCC(F)(F)F)ncc1-c1nc2c(n1C(C)C)[C@@]1(C(=O)Nc3cc(Cl)ccc31)N(c1cc(Cl)ccc1C)C2=O` [Example S-141, (S)-6-chloro-5′-(5-chloro-2-methylphenyl)-3′-isopropyl-2′-(4-methoxy-2-(2,2,2-trifluoroethoxy)pyrimidin-5-yl)-3′H-spiro[dihydroindole-3,4′-pyrrolo[3,4-d]imidazole]-2,6′(5′H)-dione] are 3.42 nM and 73.6 nM.
Regarding `COc1cc(C(F)(F)F)ncc1-c1nc2c(n1C(C)C)[C@@]1(C(=O)Nc3cc(Cl)ccc31)N(c1cccc(Cl)c1)C2=O` [Example S-142, (S)-6-chloro-5′-(3-chlorophenyl)-3′-isopropyl-2′-(4-methoxy-6-(trifluoromethyl)pyridin-3-yl)-3′H-spiro[dihydroindole-3,4′-pyrrolo[3,4-d]imidazole]-2,6′(5′H)-dione], the IC50 on MDM2 was 1.45 nM; in test [1] it was 138 nM.
With `COc1cc(C2CC2)ncc1-c1nc2c(n1C(C)C)[C@@]1(C(=O)Nc3cc(Cl)ccc31)N(c1cc(Cl)cnc1C)C2=O` [Example S-143, (S)-6-chloro-5′-(5-chloro-2-methylpyridin-3-yl)-2′-(6-cyclopropyl-4-methoxypyridin-3-yl)-3′-isopropyl-3′H-spiro[dihydroindole-3,4′-pyrrolo[3,4-d]imidazole]-2,6′(5′H)-dione], the IC50 was 1.1 nM on MDM2 and 24.9 nM in test [1].

The record behind these values is patent publication US11339171B2, “MDM2 inhibitors” (Gan & Lee Pharmaceuticals, priority 2017, dated 2022).
